Broadly, the EC50 is the concentration at which the effect is half-maximal. The fraction unbound is free concentration divided by total concentration. Higher therefore signals weak binding. Broadly, the Kp is the ratio of the level in a tissue or fluid to that in plasma or blood.

Data set [1] addresses T1, Muscarinic acetylcholine receptor M4 (Rattus norvegicus, UniProt P08485).
T1 sequence (P08485 whole entry): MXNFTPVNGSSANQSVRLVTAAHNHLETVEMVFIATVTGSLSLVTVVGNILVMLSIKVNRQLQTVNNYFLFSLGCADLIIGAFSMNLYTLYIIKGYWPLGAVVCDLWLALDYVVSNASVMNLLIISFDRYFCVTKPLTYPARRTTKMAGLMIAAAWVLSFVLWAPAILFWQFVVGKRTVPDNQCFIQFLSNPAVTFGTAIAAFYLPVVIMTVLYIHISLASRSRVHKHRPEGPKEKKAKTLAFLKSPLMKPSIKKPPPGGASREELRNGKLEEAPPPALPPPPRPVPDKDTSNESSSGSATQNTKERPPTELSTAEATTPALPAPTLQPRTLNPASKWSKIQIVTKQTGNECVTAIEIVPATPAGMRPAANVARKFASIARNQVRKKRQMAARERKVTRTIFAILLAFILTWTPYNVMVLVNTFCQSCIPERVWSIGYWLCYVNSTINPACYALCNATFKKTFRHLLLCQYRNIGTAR
The data set is described as follows: (§1) Positive allosteric modulation of rat M4 receptor expressed in CHO cells co-expressing Gqi5 assessed as increase in acetylcholine-induced calcium mobilization. It counts as functional, cell-based. A general note: A change in cytosolic calcium serves as a functional read-out for many receptors and channels.

Data set [2] addresses T2, Muscarinic acetylcholine receptor M4 (Rattus norvegicus) (UniProt P08485).
T2 sequence (whole entry): T1 sequence (P08485 whole entry)
Description: Positive allosteric modulation of rat M4 receptor expressed in CHO cells co-expressing Gqi5 assessed as increase in acetylcholine-induced calcium mobilization relative to acetylcholine. The format is functional, cell-based.

Data set [3] is described as follows: Intrinsic clearance in rat liver microsomes. The format is ADME, microsome. The conditions noted are these: read-out: CLH.
The nature of data set [4]: Intrinsic clearance in human liver microsomes. The format is ADME, microsome. The conditions noted are these: read-out: CLH. (Liver microsomes are a subcellular fraction often used to study metabolism.)
Data set [5] can be described thus: Fraction unbound in rat plasma. It counts as ADME, cell-free.
Data set [6] can be described thus: Fraction unbound in human plasma. It counts as ADME, cell-free.
Data set [7] is described as follows: Fraction unbound in rat brain. The format is ADME, tissue-based.
Data set [8] in a line: Brain to plasma partition coefficient, Kp of the compound in Sprague-Dawley rat at 0.2 mg/kg, iv measured after 0.25 hrs. The format is ADME, organism-based. Conditions: brain and plasma.
A short description of data set [9]: Ratio of unbound brain to plasma concentration in Sprague-Dawley rat at 0.2 mg/kg, iv measured after 0.25 hrs. The format is ADME, organism-based. Conditions: brain and plasma, read-out: K(p,uu,brain).
Data set [10] has as its target T2, Muscarinic acetylcholine receptor M4 (Rattus norvegicus). The data set is described as §1. The format is functional, cell-based.

Activity calls are given as the source filed them. The rule behind the calls is not given here.

Regarding `Cc1cc(C)c2cc(C(=O)NC3CN(c4ncc(OC(C)C)cn4)C3)ccc2n1`, the EC50 in data set [1] (read-out: EC50) stood at 6140 nM. For the same molecule, in data set [2], the %max was 73%.
`Cc1cc(C)c2cc(C(=O)NC3CN(c4cnc(C(F)(F)F)cn4)C3)ccc2n1`: in data set [1] (read-out: EC50), the EC50 was determined as 1160 nM. For the same molecule, in [2], the %max amounted to 75%.
As for `Cc1cc(C)c2cc(C(=O)NC3CN(c4ncc(F)cc4Cl)C3)ccc2n1`, in data set [1] (read-out: EC50), the EC50 came out at 401 nM. Further, in data set [2], the %max came to 72%.
Regarding `Cc1cc(C)c2cc(C(=O)NC3CN(c4cc(Cl)nc(Cl)c4)C3)ccc2n1`, the EC50 in data set [1] (read-out: EC50) came out at 225 nM. Also, the %max in data set [2] was determined as 44%.
With `COc1ccc(CNC(=O)c2ccc3nc(C)cc(C)c3c2)cc1F`, the EC50 in [1] (read-out: EC50) was > 10000 nM. The %max in data set [2] amounted to 63%.
Consider `Cc1cc(C)c2cc(C(=O)NC3CN(c4cnc(C5CC5)cn4)C3)ccc2n1`, for which, in [1] (read-out: EC50), the EC50 amounted to 1070 nM. Further, the %max in data set [2] was 82%.
Take `Cc1cc(C)c2cc(C(=O)NC3CN(c4cc(Cl)ncc4Cl)C3)ccc2n1`: the EC50 in data set [1] (read-out: EC50) stood at 307 nM. In data set [2], the %max was 57%. In addition, the CLint scaled in data set [3] was determined as 295 mL/min/kg; in data set [4], 160 mL/min/kg. Also, the fraction unbound in [5] came to 0.002; in data set [6], 0.002; in data set [7], 0.006. This molecule yielded a Kp at 0.25 h in data set [8] of 0.1. Besides, the Kp uu at 0.25 h in [9] is 0.3.
For `Cc1ccc(OC2CCN(c3ncnc4ccc(F)cc34)CC2)cn1`, the EC50 in data set [1] (read-out: EC50) stood at 225 nM.
On to `Cc1cc(C)c2cc(C(=O)NC3CN(c4ccc(Cl)cn4)C3)ccc2n1`, for which the EC50 in data set [1] (read-out: EC50) was 967 nM. Also, in data set [2], the %max came to 84%.
Turning to `Cc1cc(C)c2cc(C(=O)NC3CN(c4ccc(C(F)(F)F)nc4)C3)ccc2n1`, the EC50 in data set [1] (read-out: EC50) is 449 nM. Further, the %max in [2] was 85%. Besides, the CLint scaled in data set [3] came out at 94 mL/min/kg; in [4] it was 36 mL/min/kg. The values for the fraction unbound in data set [5], in [6] and in data set [7] were 0.004, 0.005 and 0.016, respectively. The molecule also gave a Kp at 0.25 h in data set [8] of 0.05. Also, in data set [9], the Kp uu at 0.25 h stood at 0.2.
As to `Cc1cc(C)c2cc(C(=O)NC3CN(c4ncc(C(F)(F)F)cn4)C3)ccc2n1`, the EC50 in data set [1] (read-out: EC50) is 3910 nM. Moreover, the %max in [2] was 66%.
Turning to `Cc1cc(C)c2cc(C(=O)NC3CN(c4cccc(Cl)n4)C3)ccc2n1`, the EC50 in data set [1] (read-out: EC50) was found to be 440 nM. Also, in [2], the %max amounted to 77%.
Turning to `Cc1cc(C)c2cc(C(=O)NC3CN(c4ncc(Cl)cc4F)C3)ccc2n1`, in data set [1] (read-out: EC50), the EC50 is 453 nM. Also, the %max in data set [2] turned out to be 82%.
For the molecule `Cc1cc(C)c2cc(C(=O)N3CCCC3)ccc2n1`, the pEC50 result in data set [10] was “inactive”. Besides, in [1] (cho), the EC50 result was “Not Active”. For the same molecule, in data set [2], the %max amounted to 18.3%.
As for `Cc1cc(C)c2cc(C(=O)NC3CN(c4ccc(C(F)(F)F)cn4)C3)ccc2n1`, in data set [1] (read-out: EC50), the EC50 was 1080 nM. For the same molecule, in data set [2], the %max came out at 77%.
The matching figures for `Cc1cc(C)c2cc(C(=O)NC3CN(c4ccnc(C(F)(F)F)c4)C3)ccc2n1`: 820 nM and 61%.
For `Cc1cc(C)c2cc(C(=O)NC3CN(c4ncccc4Cl)C3)ccc2n1`, in data set [1] (read-out: EC50), the EC50 stood at 935 nM. The %max in data set [2] amounted to 82%.
For the molecule `Cc1cc(C)c2cc(C(=O)NC3CN(c4ccc(F)c(F)c4)C3)ccc2n1`, the EC50 in data set [1] (read-out: EC50) is 856 nM. Further, in data set [2], the %max was 55%.
Turning to `Cc1cc(N2CC(NC(=O)c3ccc4nc(C)cc(C)c4c3)C2)cc(OC(F)F)n1`, in data set [1] (read-out: EC50), the 50% effective concentration (EC50) was 1060 nM. In data set [2], the %max amounted to 71%.
For the molecule `COc1ccc(C)c2sc(NC(=O)c3ccncc3)nc12`, the EC50 in data set [1] (read-out: EC50) is 225 nM.
In the case of `COc1cc(N2CC(NC(=O)c3ccc4nc(C)cc(C)c4c3)C2)c(Cl)cn1`, the EC50 in [1] (read-out: EC50) amounted to 383 nM. For the same molecule, the %max in data set [2] amounted to 62%. Further, the CLint scaled in [3] is 178 mL/min/kg; in [4], 106 mL/min/kg. For the same molecule, the fraction unbound in data set [5] amounted to 0.002; in [6] it was 0.002; in [7] it was 0.008. The molecule further returned a Kp at 0.25 h in data set [8] of 0.84. The Kp uu at 0.25 h in data set [9] turned out to be 3.36.
As to `Cc1cc(C)c2cc(C(=O)NC3CN(c4ccnc(F)c4F)C3)ccc2n1`, in data set [1] (read-out: EC50), the EC50 came to 332 nM. In data set [2], the %max was found to be 82%. For the same molecule, the CLint scaled in data set [3] is 232 mL/min/kg; in data set [4], 129 mL/min/kg. The figures for the unbound share (fraction unbound) in data set [5], in data set [6] and in data set [7] were 0.013, 0.009 and 0.023, respectively. Moreover, the Kp at 0.25 h in data set [8] was 0.17. For the same molecule, the Kp uu at 0.25 h in data set [9] is 0.3.
Take `Cc1cc(C)c2cc(C(=O)NC3CN(c4ncc(F)cn4)C3)ccc2n1`: in data set [1] (read-out: EC50), the EC50 was > 10000 nM. The %max in data set [2] was 61%.
Turning to `COc1ccc(CNC(=O)c2sc3nnc(C)c(C)c3c2N)cc1F`, the EC50 in data set [1] (read-out: EC50) stood at 225 nM.
Take `Cc1cc(C)c2cc(C(=O)NC3CN(c4ccc(OC(F)F)nc4)C3)ccc2n1`: the pEC50 result in data set [10] was “inactive”. Further, the EC50 entry in [1] (cho) is listed as “Not Active”. The %max in data set [2] was found to be 43%.
Consider `Cc1cc(C)c2cc(C(=O)NC3CN(c4ccnc(OC(F)F)c4)C3)ccc2n1`, for which the EC50 in data set [1] (read-out: EC50) amounted to 1130 nM. Further, in [2], the %max worked out at 86%.
As to `Cc1cc(C)c2cc(C(=O)NC3CN(c4ncc(Cl)cc4Cl)C3)ccc2n1`, the EC50 in [1] (read-out: EC50) was determined as 587 nM. In data set [2], the %max was 70%.
Consider `COc1nc2sc(C(=O)NC3CC3)c(N)c2c(C)c1Cl`, for which the EC50 in [1] (read-out: EC50) was 225 nM.
